Data taken from patent US8273553B2, “Production of growth hormone in serum-free cell culture medium for mammalian cells” (Ares Trading S.A., priority 2004, dated 2012).
Where two headings read alike, the source gives them in different places. Blank lines part the entries; values can stand above or below the molecule they belong to.

Key:
[1] = test system: r-hGH producing cells of working cell bank 15 (WCB15); assay: r-hGH productivity in six-well plates (P6 system), DMEM with additions (Example 2); assay type: cell-based; conditions: for average productivity, % of control: duplicate; for response μg/well/hrvst / response as % “−1−1−1”: Cr 2.5 nM, Ni 1 nM in DMEM, average of 14 harvests; for response as % “−1−1−1”: relative to no addition; for % increase of hGH productivity: 6-well system
Procedure: The experiments were carried out using the working cell bank 15 (WCB15), which is now in current use in normal production.
Scale-down screening experiments were carried out in six-well plates COSTAR P6 of treated CELLBIND polystyrene (CORNING catalogue No. 3335) supplied with 5 mL of culture medium per well. In this case P6 plates were seeded with cells taken from the subculture 3 (standard manufacturing process) to an approximate density of 5×10^5 viable cells/well and then incubated at 37° C., within controlled atmosphere of CO2 at 5%, with standard growth medium or under 13% CO2 when changing to DMEM production medium modified as per the specific experimental plan.
(§1) Measurement of r-hGH in the culture medium was carried out daily by the currently approved reverse-phase HPLC titration.
In other experiments, metal trace elements were added to the DMEM in three concentrations and tested for effects on r-hGH productivity in 6-well plates. Each concentration was tested in duplicate and the average value was calculated. In all cases the concerned salt was prepared as 1000× stock solution from which the corresponding aliquots were taken and added to the medium.

[2] = test system: hGH expressing C127 cells; assay: rhGH productivity of hGH expressing C127 cells in roller bottles, DMEM supplemented with trace elements (Example 1); assay type: cell-based, murine; conditions: for % INCREASE OF PRODUCTIVITY: single ion in DMEM at growth medium concentration: Zn 1.50300, Cu 0.02560, Se 0.11400, Co 0.00840 μM; for average productivity increase compared to control: 10 μM continuously added to DMEM, production phase 14 days; for productivity increase at the assayed concentration (in words): 10 μM in DMEM; for productivity increase, amino acid added together with the metals: Zn 0.5 μM, Cu 0.02 μM, Ferric Citrate 4.8 μM plus Gln 4.8 mM or Cys 0.29 mM
Procedure: The addition of the different supplements assayed (metal solutions etc.) in different experiments was carried out directly on fresh culture medium.
Genetically modified C127 murine cells (ATCC CRL 1616) were used for the expression of the recombinant human growth hormone (rhGH). The vector is based on BPV69T comprising the pBR322 multiple cloning site and comprising 1.6 kb of the rhGH minigene under the control of mouse metallothionein-1 (MT-1) promoter. Cultures derived from one Working Cell Bank obtained from different rhGH production batches were used in the experiments.
Cell cultures were kept incubated at 36° C.±0.5° C. and 0.4 rpm in 2125 cm^2 roller bottles containing 375 mL±15 mL of culture medium or in 1700 cm cm^2 roller bottles containing 300 mL of culture medium.
Culture medium used for the rhGH production phase was DMEM with 4.5 g/L glucose buffered with sodium bicarbonate (3.7 g/L).
Measurement of rhGH in the culture medium was carried out daily by reverse-phase HPLC titration:
Chromatography conditions are: • Elution by gradient: starting with a mixture phase A/phase B 60/40 ending at phase A/phase B 20/80. Gradient complete in 5 minutes (slightly variable depending on instrumentation in use) • Injection volume 50 μliters • Detection: UV absorbance at 215 nm. • P Calibration curve: r-hGH standard at 10, 50, 100, 120 and 150 μg/ml
The r-hGH concentration of a sample is determined by comparison with standard r-hGH concentrations.
Productivity is expressed as mg of rhGH per roller bottle. Raw data are rhGH concentration in the harvest (as measured by HPLC) and total number of roller bottles harvested. Typically a roller bottle during harvest phase contains around 10^9 cells.

[3] = test system: r-hGH producing cells of working cell bank 15 (WCB15); assay type: cell-based; conditions: for Product. up to H14 / Product. up to H25: relative to control
Procedure: According to the approved work instructions, cell cultures were kept incubated at 36° C.±0.5° C. and 0.4 rpm in 1700 cm^2 roller bottles containing 400 mL±20 mL of culture medium.
as §1

[4] = test system: cell monolayer of rhGH-producing cultures; assay: peeling-off: detachment of the cell monolayer from the roller bottles; conditions: roller bottles with CDX, second part of harvest period
[5] = pH in a range of 6.5 to 8.5; cited from earlier work

Molecule: [Sn] [Sn]
average productivity, % of control ([1]; 1 nM in DMEM): 101.8%
average productivity, % of control ([1]; 10 nM in DMEM): 97.7%
average productivity, % of control ([1]; 100 nM in DMEM): 96.5%
effect of higher concentrations on productivity (in words) ([1]; highest tested concentrations): higher concentrations seem to reduce productivity

Molecule: O.O.O.O.O.O=S(=O)([O-])[O-].[Cu+2] [Cu, Copper Sulfate (CuSO4.5H2O)]
increase in productivity ([2]; Copper 0.02 μM in DMEM): 32.1%±9.4%
optimal supplementation concentration in DMEM ([2]; Zinc 0.5 μM and Ferric Citrate 4.8 μM constant): 25.6 nM
% INCREASE OF PRODUCTIVITY [2]: 37.50%

Molecule: O.O.O.O.O.O=[Se]([O-])[O-].[Na+].[Na+] [Se, Sodium Selenite (Na2SeO3.5H2O)]
% INCREASE OF PRODUCTIVITY [2]: −3.10%
average productivity, % of control ([1]; 1 nM in DMEM): 101.5%
average productivity, % of control ([1]; 10 nM in DMEM): 102.4%
average productivity, % of control ([1]; 500 nM in DMEM): 101.4%

Molecule: O.O.O.O.O.O.O=[N+]([O-])[O-].O=[N+]([O-])[O-].[Ni+2] [Ni, Nickel Nitrate (Ni(NO3)2.6H2O)]
average productivity, % of control ([1]; 1 nM in DMEM): 103.1%
average productivity, % of control ([1]; 10 nM in DMEM): 102.1%
average productivity, % of control ([1]; 100 nM in DMEM): 98.6%
response μg/well/hrvst ([1]; Co 5 mcrM): 257.0 μg/well/hrvst
response as % “−1−1−1” ([1]; Co 5 mcrM): 101.2%

Molecule: O.O.[Ba+2].[Cl-].[Cl-] [Ba, Barium Chloride (BaCl2.2H2O)]
average productivity increase compared to control [2]: 1.1%
productivity increase at the assayed concentration (in words) [2]: Neither Barium nor Chromium showed productivity increase
average productivity, % of control ([1]; 1 nM in DMEM): 103.1%
average productivity, % of control ([1]; 10 nM in DMEM): 101.9%
average productivity, % of control ([1]; 100 nM in DMEM): 98.9%

Molecule: O.O.O.O.O.O.O.O.O=S(=O)([O-])[O-].O=S(=O)([O-])[O-].O=S(=O)([O-])[O-].[Cd+2].[Cd+2].[Cd+2] [Cd, Cadmium Sulphate (CdSO4.8/3H2O)]
average productivity, % of control ([1]; 1 nM in DMEM): 100.8%
average productivity, % of control ([1]; 10 nM in DMEM): 103.6%
increase of productivity ([1]; 100 nM): 20%
average productivity, % of control ([1]; 100 nM in DMEM): 120.6%
increase in r-hGH productivity over the control ([3]; Cd 100 nM, roller bottles, two independent experiments): 12-15%

Molecule: O.O.O.O.O.O.[Cl-].[Cl-].[Co+2] [Co, Cobalt Chloride (CoCl2.6H2O)]
average productivity increase compared to control [2]: 32.4%
rhGH productivity increase compared to control, continued induction ([2]; cobalt continuously added (10 μM)): 32.5%
rhGH productivity increase compared to control, intermittent induction ([2]; cobalt intermittently added (20 μM CoCl2.6H2O)): 9%
% INCREASE OF PRODUCTIVITY [2]: −3.20%
statistical analysis of effect on productivity (in words) ([1]; 2^3 factorial design, Co 5 mcrM): significant effect on productivity
response μg/well/hrvst ([1]; Co 5 mcrM): 272.1 μg/well/hrvst
response as % “−1−1−1” ([1]; Co 5 mcrM): 107.1%
Product. up to H14 ([3]; Co 1 mcrM added to DMEM): 107%
Product. up to H25 ([3]; Co 1 mcrM added to DMEM): 102%
Product. up to H14 ([3]; Co 2 mcrM added to DMEM): 110%
Product. up to H25 ([3]; Co 2 mcrM added to DMEM): 102%
Product. up to H14 ([3]; Co 5 mcrM added to DMEM): 113%
Product. up to H25 ([3]; Co 5 mcrM added to DMEM): 101%
Product. up to H14 ([3]; Co 10 mcrM added to DMEM): 117%
Product. up to H25 ([3]; Co 10 mcrM added to DMEM): 104%

peeling off in the roller bottles (visual observation) [4]: much less peeling off
Molecule: Methyl-β-Cyclodextrin [CDX]
% increase of hGH productivity ([1]; CDX 25 mg/L, 0.02 mM): 2%
% increase of hGH productivity ([1]; CDX 50 mg/L, 0.04 mM): 4%
% increase of hGH productivity ([1]; CDX 80 mg/L, 0.07 mM): 5%
% increase of hGH productivity ([1]; CDX 116 mg/L, 0.1 mM): 7%
increase in productivity ([1]; CDX only (FIG. 19)): 7%
productivity relative to the control ([3]; CDX 116 mg/L (0.1 mM), Cadmium 0.1 micromolar, Cobalt 1 micromolar): 104%

Molecule: NC(=O)CC[C@H](N)C(=O)O [glutamine, L-glutamine]
productivity increase, amino acid added together with the metals [2]: 81.1%

Molecule: O.O.O.O.O.O.O.O=S(=O)([O-])[O-].[Zn+2] [Zn, Zinc sulfate (ZnSO4.7H2O)]
concentration at which maximum productivity level (plateau) is observed ([2]; Ferric Citrate 4.8 μM and Copper 0.025 μM constant): above 200 nM
increase in productivity ([2]; Zinc 0.5 μM in DMEM): 16.8%±1.6%
increase in productivity ([2]; Zinc 1.5 μM in DMEM): 10.3%±5.0%
productivity at plateau over the average control value ([2]; Zinc above 200 nM, Ferric Citrate 4.8 μM, Copper 0.025 μM): about 60%
% INCREASE OF PRODUCTIVITY [2]: 12.10%

Molecule: [Mn] [Mn]
average productivity, % of control ([1]; 1 nM in DMEM): 101.3%
average productivity, % of control ([1]; 10 nM in DMEM): 103.8%
average productivity, % of control ([1]; 100 nM in DMEM): 101.8%

Molecule: O.O.O.O.O.O.O.O.O.O.O.O.O=S(=O)([O-])[O-].O=S(=O)([O-])[O-].[Cr+3].[K+] [Cr, Chromium Potassium Sulfate (K[Cr(SO6H4)2(H2O)2].6H2O)]
productivity increase at the assayed concentration (in words) [2]: Neither Barium nor Chromium showed productivity increase
average productivity, % of control ([1]; 1 nM in DMEM): 102.0%
average productivity, % of control ([1]; 10 nM in DMEM): 102.8%
average productivity, % of control ([1]; 100 nM in DMEM): 97.8%
response μg/well/hrvst ([1]; Co 5 mcrM): 253.6 μg/well/hrvst
response as % “−1−1−1” ([1]; Co 5 mcrM): 99.8%

Molecule: N[C@@H](CSSC[C@H](N)C(=O)O)C(=O)O [cystine, L-cystine]
productivity increase, amino acid added together with the metals [2]: 69.9%

Molecule: hGH: single polypeptide chain of 191 amino acids having two disulfide bonds
solubility in aqueous buffers [5]: > 10 µg/mL
